Assay results taken from patent US12247032B2, “Substituted pyrazolo[1,5-a]pyrimidines as inhibitors of JAK kinases” (Genentech, Inc., priority 2019, dated 2025).

Test system: JAK1 pathway (P-STAT6 in TF-1 human erythroleukemia cells + IL-13)
Assay: P-STAT6 TF-1+Interleukin-13 (IL-13) assay
Type: cell-based
Conditions: Homo sapiens, TF-1, 0.5 h, TF-1 cells, 30 minutes compound, IL-13 10 minutes; IC50 by four-parameter fit; read-out: Cellular PSTAT6 TF-1 + IL13
Protocol: TF-1 human erythroleukemia cells (ATCC®; Manassas, VA; Catalog No. CRL-2003™) were grown in Roswell Park Memorial Institute (RPMI) medium supplemented with 10% heat-inactivated fetal bovine serum (FBS), 2 ng/mL granulocyte-macrophage colony-stimulating factor, 1× non-essential amino acids (NEAA), and 1 mM sodium pyruvate. The day before the assay, the cultures were transferred to Opti-MEM™, 1×NEAA, 1 mM sodium pyruvate, and 0.5% charcoal-stripped FBS (starve medium). Inhibitor stock solutions (5 mM in DMSO) were serially diluted 1:2 in DMSO to generate a 10-point concentration titration (at 500× test concentration), which was further diluted by a 50-fold dilution in Assay Medium (RPMI containing 1×NEAA and 1 mM sodium pyruvate) to generate a 10× concentration titration (in 2% DMSO). The cells (300,000 cells/well in 35 μL of Assay Medium) were seeded in 384-well Greiner plates. Diluted inhibitor at 10× concentration (5 μL) was added to the cells and the plates were incubated for 30 minutes at 37° C. in a humidified incubator. Cells were stimulated with the human recombinant cytokine at the respective EC90 concentrations, as previously determined for each individual lot. For the phosphorylated signal transducer and activator of transcription 6 (P-STAT6) TF-1+Interleukin-13 (IL-13) assay, 10 μL of 250 ng/mL IL-13 (R&D Systems; Minneapolis, MN) was added to the cells, which were then incubated for 10 minutes at 37° C. For the P-STAT5 TF-1+Erythropoietin (EPO) assay, 10 μL of 110 IU/mL EPO (Gibco Life Technologies, Catalog No. PHC2054) was added to the cells, which were then incubated for 30 min at 37° C. For both assays, the incubation was followed by addition to the cells of 5 μL of ice-cold 10× cell lysis buffer (Cell Signaling Technologies; Danvers, MA; Catalog No. 9803S) containing 1 mM phenylmethylsulfonyl fluoride (PMSF). Assay plates were frozen at −80° C. for a minimum of 1 hour. In the IL-13 assay, P-STAT6 was measured by coating goat anti-rabbit (GAR) plates (Meso Scale Discovery [MSD]; Rockville, MD; Catalog No. MSD L21RA-1) with rabbit anti-human total STAT6 antibody (Cell Signaling Technologies; Catalog No. 9362S), incubating the cell lysates in the coated plates overnight at 4° C., and then detecting with mouse anti-P-STAT6 (Tyr641) Clone 16E12 antibody (MilliporeSigma; Burlington, MA; Catalog No. 05-590, custom labeled by MSD with SULFO-tag) using standard MSD plate processing, washing, and detection protocols. In the EPO assay, P-STAT5 was detected using the phospho-STAT5a,b Whole Cell Lysate Kit (MSD; Catalog No. K150IGD-1). The electrochemiluminescence (ECL) signal of wells was read on the MESO SECTOR S600 (MSD) reader.
Data analysis was performed by subtracting the negative control (cytokine stimulated and 20 μM control inhibitor-treated cells) mean ECL value from the ECL value of all wells, determining percent of control for test compound well ECL values relative to the positive control (cytokine stimulated and DMSO-treated cells) mean ECL value, and determining the IC50 for test compounds with a four-parameter logistic fit model as shown in Equation 4.

Structure (SMILES)	IC50
CN1CC(n2nnc(Cn3cc(NC(=O)c4cnn5cccnc45)c(-c4cc(Cl)ccc4OC(F)F)n3)n2)C1 [Example 7, N-[3-[5-chloro-2-(difluoromethoxy)phenyl]-1-[[2-(1-methylazetidin-3-yl)tetrazol-5-yl]methyl]pyrazol-4-yl]pyrazolo[1,5-a]pyrimidine-3-carboxamide]	5 nM
O=C(Nc1cn(Cc2nnn(C3CNC3)n2)nc1-c1cc(Cl)ccc1OC(F)F)c1cnn2cccnc12 [Example 8, N-[1-[[2-(azetidin-3-yl)tetrazol-5-yl]methyl]-3-[5-chloro-2-(difluoromethoxy)phenyl]pyrazol-4-yl]pyrazolo[1,5-a]pyrimidine-3-carboxamide]	8.4 nM
CN1CC(n2nnc(Cn3cc(NC(=O)c4cnn5cccnc45)c(-c4cc(OC(F)F)ccc4OC(F)F)n3)n2)C1 [Example 10, N-[3-[2,5-bis(difluoromethoxy)phenyl]-1-[[2-(1-methylazetidin-3-yl)tetrazol-5-yl]methyl]pyrazol-4-yl]pyrazolo[1,5-a]pyrimidine-3-carboxamide]	4 nM
O=C(Nc1cn(Cc2nnn(C3CNC3)n2)nc1-c1cc(OC(F)F)ccc1OC(F)F)c1cnn2cccnc12 [Example 11, N-[1-[[2-(azetidin-3-yl)tetrazol-5-yl]methyl]-3-[2,5-bis(difluoromethoxy)phenyl]pyrazol-4-yl]pyrazolo[1,5-a]pyrimidine-3-carboxamide]	9.5 nM
O=C(Nc1cn(Cc2nnnn2C2CNC2)nc1-c1cc(OC(F)F)ccc1OC(F)F)c1cnn2cccnc12 [Example 12, N-[1-[[1-(azetidin-3-yl)tetrazol-5-yl]methyl]-3-[2,5-bis(difluoromethoxy)phenyl]pyrazol-4-yl]pyrazolo[1,5-a]pyrimidine-3-carboxamide]	22 nM
NCCn1nnc(Cn2cc(NC(=O)c3cnn4cccnc34)c(-c3cc(OC(F)F)ccc3OC(F)F)n2)n1 [Example 13, N-[1-[[2-(2-aminoethyl)tetrazol-5-yl]methyl]-3-[2,5-bis(difluoromethoxy)phenyl]pyrazol-4-yl]pyrazolo[1,5-a]pyrimidine-3-carboxamide]	18 nM
NCCn1nnnc1Cn1cc(NC(=O)c2cnn3cccnc23)c(-c2cc(OC(F)F)ccc2OC(F)F)n1 [Example 14, N-[1-[[1-(2-aminoethyl)tetrazol-5-yl]methyl]-3-[2,5-bis(difluoromethoxy)phenyl]pyrazol-4-yl]pyrazolo[1,5-a]pyrimidine-3-carboxamide]	45 nM
CN1CC(n2nnnc2Cn2cc(NC(=O)c3cnn4cccnc34)c(-c3cc(Cl)ccc3OC(F)F)n2)C1 [Example 15, N-[3-[5-chloro-2-(difluoromethoxy)phenyl]-1-[[1-(1-methylazetidin-3-yl)tetrazol-5-yl]methyl]pyrazol-4-yl]pyrazolo[1,5-a]pyrimidine-3-carboxamide]	3.4 nM
CN(C)CCn1nnc(Cn2cc(NC(=O)c3cnn4cccnc34)c(-c3cc(OC(F)F)ccc3OC(F)F)n2)n1 [Example 16, N-[3-[2,5-bis(difluoromethoxy)phenyl]-1-[[2-[2-(dimethylamino)ethyl]tetrazol-5-yl]methyl]pyrazol-4-yl]pyrazolo[1,5-a]pyrimidine-3-carboxamide]	12 nM

Second part, the molecule after the results:

IC50	Structure (SMILES)
13 nM	O=C(Nc1cn(Cc2nnn(C3CCNC3)n2)nc1-c1cc(OC(F)F)ccc1OC(F)F)c1cnn2cccnc12 (single isomer, unassigned) [Example 27, N-[3-[2,5-bis(difluoromethoxy)phenyl]-1-[(2-pyrrolidin-3-yltetrazol-5-yl)methyl]pyrazol-4-yl]pyrazolo[1,5-a]pyrimidine-3-carboxamide]
39 nM	CN1CCC(N2CC(n3nnc(Cn4cc(NC(=O)c5cnn6cccnc56)c(-c5cc(OC(F)F)ccc5OC(F)F)n4)n3)C2)C1 (single isomer, unassigned) [Example 72, N-[3-[2,5-bis(difluoromethoxy)phenyl]-1-[[2-[1-(1-methylpyrrolidin-3-yl)azetidin-3-yl]tetrazol-5-yl]methyl]pyrazol-4-yl]pyrazolo[1,5-a]pyrimidine-3-carboxamide]
2.7 nM	CN(C)CCn1nnnc1Cn1cc(NC(=O)c2cnn3cccnc23)c(-c2cc(OC(F)F)ccc2OC(F)F)n1 [Example 17, N-[3-[2,5-bis(difluoromethoxy)phenyl]-1-[[1-[2-(dimethylamino)ethyl]tetrazol-5-yl]methyl]pyrazol-4-yl]pyrazolo[1,5-a]pyrimidine-3-carboxamide]
20 nM	O=C(Nc1cn(Cc2nnn(C3CCNCC3)n2)nc1-c1cc(OC(F)F)ccc1OC(F)F)c1cnn2cccnc12 [Example 18, N-[3-[2,5-bis(difluoromethoxy)phenyl]-1-[[2-(4-piperidyl)tetrazol-5-yl]methyl]pyrazol-4-yl]pyrazolo[1,5-a]pyrimidine-3-carboxamide]
7 nM	CNCCn1nnnc1Cn1cc(NC(=O)c2cnn3cccnc23)c(-c2cc(OC(F)F)ccc2OC(F)F)n1 [Example 19, N-[3-[2,5-bis(difluoromethoxy)phenyl]-1-[[1-[2-(methylamino)ethyl]tetrazol-5-yl]methyl]pyrazol-4-yl]pyrazolo[1,5-a]pyrimidine-3-carboxamide]
45 nM	CNCCn1nnc(Cn2cc(NC(=O)c3cnn4cccnc34)c(-c3cc(OC(F)F)ccc3OC(F)F)n2)n1 [Example 20, N-[3-[2,5-bis(difluoromethoxy)phenyl]-1-[[2-[2-(methylamino)ethyl]tetrazol-5-yl]methyl]pyrazol-4-yl]pyrazolo[1,5-a]pyrimidine-3-carboxamide]
40 nM	CN(C)CCN1CC(n2nnc(Cn3cc(NC(=O)c4cnn5cccnc45)c(-c4cc(OC(F)F)ccc4OC(F)F)n3)n2)C1 [Example 21, N-[3-[2,5-bis(difluoromethoxy)phenyl]-1-[[2-[1-[2-(dimethylamino)ethyl]azetidin-3-yl]tetrazol-5-yl]methyl]pyrazol-4-yl]pyrazolo[1,5-a]pyrimidine-3-carboxamide]
4.8 nM	CN1CCC(n2nnc(Cn3cc(NC(=O)c4cnn5cccnc45)c(-c4cc(OC(F)F)ccc4OC(F)F)n3)n2)CC1 [Example 22]
7.4 nM	CN1CC(n2nnc(Cn3cc(NC(=O)c4cnn5cccnc45)c(-c4cc(C5CC5)ccc4OC(F)F)n3)n2)C1 [Example 23, N-[3-[5-cyclopropyl-2-(difluoromethoxy)phenyl]-1-[[2-(1-methylazetidin-3-yl)tetrazol-5-yl]methyl]pyrazol-4-yl]pyrazolo[1,5-a]pyrimidine-3-carboxamide]
11 nM	CN1CCC(n2nnnc2Cn2cc(NC(=O)c3cnn4cccnc34)c(-c3cc(OC(F)F)ccc3OC(F)F)n2)C1 (stereo not drawn) [Example 26, N-[3-[2,5-bis(difluoromethoxy)phenyl]-1-[[1-(1-methylpyrrolidin-3-yl)tetrazol-5-yl]methyl]pyrazol-4-yl]pyrazolo[1,5-a]pyrimidine-3-carboxamide]
13 nM	CN(CCN1CC(n2nnc(Cn3cc(NC(=O)c4cnn5cccnc45)c(-c4cc(OC(F)F)ccc4OC(F)F)n3)n2)C1)C(=O)OC(C)(C)C [Example 31, tert-butyl N-[2-[3-[5-[[3-[2,5-bis(difluoromethoxy)phenyl]-4-(pyrazolo[1,5-a]pyrimidine-3-carbonylamino)pyrazol-1-yl]methyl]tetrazol-2-yl]azetidin-1-yl]ethyl]-N-methyl-carbamate]

Same assay, conditions: TF-1 cells, 30 minutes compound, IL-13 10 minutes; IC50 by four-parameter fit; read-out: Cellular PSTAT6 TF-1 + IL13

IC50	Structure (SMILES)
7.1 nM	O=C(Nc1cn(Cc2nnn(C3CCNC3)n2)nc1-c1cc(OC(F)F)ccc1OC(F)F)c1cnn2cccnc12 (single isomer, unassigned) [Example 28, N-[3-[2,5-bis(difluoromethoxy)phenyl]-1-[(2-pyrrolidin-3-yltetrazol-5-yl)methyl]pyrazol-4-yl]pyrazolo[1,5-a]pyrimidine-3-carboxamide]
